# Like-named read-outs stand apart in the source and are kept apart here.
# Columns and labels:
# Type in all cases: cell-based
# [1] = tested on: BEL-7402 liver cancer cell line; assay: CCK-8 proliferation inhibition; settings: concentration of 30 μM
# Text: (§1) 2. The present invention adopts the CCK-8 method to determine the proliferation inhibition effect of the spiro three-membered ring, spiro five-membered ring peptide deformylase inhibitor as described in Examples 1-80 against colorectal cancer cells, lung cancer cells, gastric cancer cells, liver cancer cells, and the like. […] The compound having the best activity synthesized in Example 64 was further tested for its inhibitory activity against other tumor cells including T cell leukemia, acute myeloid leukemia, cervical cancer, breast cancer, prostate cancer and osteosarcoma, and the like (see Table 7).
# (§2) (1) HCT-116 colorectal cancer cell line, A549 lung cancer cell line, MGC-803 gastric cancer cell line, BEL-7402 liver cancer cell line, Jurkat T cell leukemia cell line, HL60 acute myeloid leukemia cell line, Hela cervical cancer cell line, MCF-7 breast cancer cell line, PC3 prostate cancer cell line and SAOS-2 osteosarcoma cell line were made into single cell suspension, 180 μL of which was inoculated into 96-well culture plate, which was cultured overnight in CO2 incubator (37° C., 5% CO2, 95% air).
# (§3) (2) Each of the spiro three-membered ring, spiro five membered ring peptide deformylase inhibitors was dissolved in DMSO, and was further formulated into drug solution with required different final concentration using corresponding cell culture medium. The drug solutions were added to the above cells respectively (20 μL/well), with the control group added with 1‰ DMSO, and cultured in a CO2 incubator for 72 hours.
# (§4) (3) After incubation for 72 hours, the culture solution was decanted, and 100 μL of 1:10 diluted CCK-8 solution was added.
# (§5) Wherein, in step (1), the concentration of the single cell suspension was 2000 cells/well.
# (§6) Wherein, in step (2), HCT-116 cells were cultured in McCoy's 5A medium (containing 10% newborn bovine serum, 1% double antibody); A549 and PC3 cells were cultured in F12 medium (containing 10% newborn bovine serum, 1% double antibody); MGC-803, BEL-7402, SAOS-2, Jurkat and HL60 cells were cultured in 1640 medium (containing 10% newborn bovine serum, 1% double antibody); and MCF-7 and Hela cells were cultured in DMEM high glucose medium (containing 10% newborn bovine serum, 1% double antibody).
# [2] = tested on: MGC-803 gastric cancer cell line; assay: CCK-8 proliferation inhibition; settings: Homo sapiens, MGC-803, 72 h, concentration of 30 μM
# Text: as §1, §2, §3, §4, §5, §6
# [3] = tested on: A549 lung cancer cell line; assay: CCK-8 proliferation inhibition; settings: Homo sapiens, A549, 72 h, concentration of 30 μM
# Text: as §1, §2, §3, §4, §5, §6
# [4] = tested on: HCT-116 colorectal cancer cell line; assay: CCK-8 proliferation inhibition; settings: Homo sapiens, HCT-116, 72 h, concentration of 30 μM, 72 hours, CCK-8
# Method in brief: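 Growth inhibition is read by CCK-8 (1:10 dilution) after 72 h of compound exposure. HCT-116 cells grow in McCoy's 5A containing 10% newborn bovine serum at 2000 cells/well, with 1‰ DMSO as vehicle control.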
# [5] = tested on: Enterococcus faecium (EFM); assay: MIC, two-fold agar dilution (CLSI), clinical isolates
# Method in brief: (§7)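 Samples are serially diluted two-fold in agar following CLSI guidance. Plates are then inoculated with the tested strains. The lowest inhibiting concentration is recorded as MIC.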
# [6] = tested on: Enterococcus faecalis (EFA); assay: as above
# Method in brief: as §7
# [7] = tested on: methicillin-sensitive Staphylococcus epidermidis (MSSE); assay: as above
# Method in brief: as §7
# [8] = tested on: Streptococcus pneoumoniae (SPN); assay: as above
# Method in brief: as §7
# [9] = tested on: methicillin-resistant Staphylococcus aureus (MRSA); assay: as above
# Method in brief: as §7
# [10] = tested on: methicillin-sensitive Staphylococcus aureus (MSSA); assay: as above
# Method in brief: as §7
# [11] = tested on: methicillin-resistant Staphylococcus epidermidis (MRSE); assay: as above
# Method in brief: as §7
# [12] = tested on: Escherichia coli (including ESBLs, non-ESBLs); assay: as above
# Method in brief: as §7
# [13] = tested on: Moraxella catarrhalis (BCA); assay: as above
# Method in brief: as §7
compound,measurement,setting,value
COC(=O)c1sccc1NC(=O)[C@@H]1CC2(CC2)CN1C(=O)[C@H](CC1CCCC1)CN(O)C=O [Example 34],inhibition at 30 µM,"[1]; Homo sapiens, Bel-7402, 72 h",> 50%
same,"Inhibition of proliferation, Liver cancer BEL-7402","[1]; 72 hours, 30 µM",63%
same,inhibition at 30 µM,[2],26%
same,inhibition at 30 µM,[3],35%
same,inhibition at 30 µM,"[4]; Table 5, read-out: Inhibition of proliferation, Colorectal cancer HCT116",≥ 30%
same,inhibition at 30 µM,[4]; read-out: HCT116 inhibition rate/%,36%
same,MIC (anti-bacterial activity),[5]; strain EFM 15-1,2 µg/mL
same,MIC (anti-bacterial activity),[5]; strain EFM 15-2,2 µg/mL
same,MIC (anti-bacterial activity),[5]; strain EFM 15-3,0.25 µg/mL
same,MIC (anti-bacterial activity),[5]; strain EFM 15-4,4 µg/mL
same,MIC (anti-bacterial activity),[5]; strain EFM 15-5,4 µg/mL
same,MIC (anti-bacterial activity),[5]; strain EFM 15-6,4 µg/mL
same,MIC (anti-bacterial activity),[6]; strain EFA 15-1,4 µg/mL
same,MIC (anti-bacterial activity),[6]; strain EFA 15-2,4 µg/mL
same,MIC (anti-bacterial activity),[6]; strain EFA 15-3,2 µg/mL
same,MIC (anti-bacterial activity),[6]; strain EFA 15-4,4 µg/mL
same,MIC (anti-bacterial activity),[6]; strain EFA 15-5,4 µg/mL
same,MIC (anti-bacterial activity),[6]; strain EFA 15-6,4 µg/mL
same,MIC (anti-bacterial activity),[6]; strain EFA 15-9,4 µg/mL
same,MIC (anti-bacterial activity),[7]; strain MSSE 15-3,4 µg/mL
same,MIC (anti-bacterial activity),[7]; strain MSSE 15-4,4 µg/mL
same,MIC (anti-bacterial activity),[7]; strain MSSE 15-5,4 µg/mL
same,MIC (anti-bacterial activity),[7]; strain MSSE 15-6,1 µg/mL
same,MIC (anti-bacterial activity),[8]; strain SPN 16-2,0.125 µg/mL
same,MIC (anti-bacterial activity),[8]; strain SPN 16-4,4 µg/mL
same,MIC (anti-bacterial activity),[9]; strain MRSA 15-1,1 µg/mL
same,MIC (anti-bacterial activity),[9]; strain MRSA 15-2,1 µg/mL
same,MIC (anti-bacterial activity),[9]; strain MRSA 15-3,1 µg/mL
same,MIC (anti-bacterial activity),[9]; strain MRSA 15-4,0.5 µg/mL
same,MIC (anti-bacterial activity),[10]; strain MSSA 15-3,1 µg/mL
same,MIC (anti-bacterial activity),[10]; strain MSSA 15-4,1 µg/mL
same,MIC (anti-bacterial activity),[10]; strain MSSA 15-5,1 µg/mL
same,MIC (anti-bacterial activity),[10]; strain MSSA 15-6,1 µg/mL
same,MIC (anti-bacterial activity),[11]; strain MRSE 15-1,0.25 µg/mL
same,MIC (anti-bacterial activity),[11]; strain MRSE 15-2,4 µg/mL
same,MIC (anti-bacterial activity),[11]; strain MRSE 15-3,4 µg/mL
same,MIC (anti-bacterial activity),[11]; strain MRSE 15-7,4 µg/mL
same,MIC (anti-bacterial activity),[12]; strain ECO+ 15-1,128 µg/mL
same,MIC (anti-bacterial activity),[12]; strain ECO+ 15-2,128 µg/mL
same,MIC (anti-bacterial activity),[12]; strain ECO+ 15-3,128 µg/mL
same,MIC (anti-bacterial activity),[12]; strain ECO+ 15-4,128 µg/mL
same,MIC (anti-bacterial activity),[12]; strain ECO− 15-1,128 µg/mL
same,MIC (anti-bacterial activity),[12]; strain ECO− 15-2,128 µg/mL
same,MIC (anti-bacterial activity),[12]; strain ECO− 15-3,128 µg/mL
same,MIC (anti-bacterial activity),[12]; strain ECO− 15-4,128 µg/mL
same,"Anti-bacterial activity (MIC), strain BCA 14-10",[13]; clinical isolate BCA 14-10,2 µg/mL
same,MIC (anti-bacterial activity),[13]; strain BCA 14-1,4 µg/mL
same,MIC (anti-bacterial activity),[13]; strain BCA 14-4,4 µg/mL
same,MIC (anti-bacterial activity),[13]; strain BCA 14-5,1 µg/mL
same,MIC (anti-bacterial activity),[13]; strain BCA 14-6,4 µg/mL
same,MIC (anti-bacterial activity),[13]; strain BCA 14-7,2 µg/mL
same,MIC (anti-bacterial activity),[13]; strain BCA 14-8,2 µg/mL

# Source: patent publication US10738028B2, “Spiro three-membered ring, spiro five-membered ring peptide deformylase inhibitor and use thereof in antibacteria and anti-tumor” (priority 2016, dated 2020)
